Measurements from patent US9554988B2, “Method for preventing or treating skin tumor” (Galderma Research & Development, priority 2010, dated 2017).
Read-outs that look alike come from different tables or passages of the source.

Key:
[1] = tested on: human tumor epithelial breast cell lines or mouse mammary tumor cell line; conditions: activation of alpha-adrenoceptors; Vazquez et al. 2006, Bruzzone et al. 2008; cited from earlier work
[2] = tested on: Albino hairless SKH1-hr mice; conditions: for Median Week to Tumor (≧1 mm): 40 weeks treatment + 12 weeks observation, time at which one-half of group has one or more qualifying tumors; for Tumor Yield (≧1 mm): average number of tumors per survivor
Method: Albino hairless SKH1-hr mice (36/sex/group) were treated for 40 weeks with UVR and brimonidine gel or vehicle according to the design in table 11. […] Topical treatments were performed approximately one hour before UVR on Monday, Wednesday and Friday of each week and approximately one hour after UVR Tuesday and Thursday of each week.

pancreatic cancer cells = conditions: Shen et al. 2008; cited from earlier work
[3] = 0.18% topical + 600 RBU/week UVR

## Clc1cccc(Cl)c1N=C1NCCN1 [clonidine]
[1]
  Proliferation of tumor cell lines: enhanced proliferation

## Brimonidine tartrate
[2]; [3]
  Reduction of tumor yield (≧1 mm) compared to the vehicle group: 1.7 fold
  Median Week to Tumor (≧1 mm): 48 Week
  Tumor Yield (≧1 mm): 2.40 tumors per survivor
[2]; 1% topical + 600 RBU/week UVR
  Members of the group that acquired one or more qualifying tumors (≧1 mm) within the 52-week study period: less than one-half of the members of the groups acquired one or more qualifying tumors
  Reduction of tumor yield (≧1 mm) compared to the vehicle group: 4.7 fold
  Median Week to Tumor (≧1 mm): >52 Week
  Tumor Yield (≧1 mm): 0.85 tumors per survivor
[2]; 2% topical + 600 RBU/week UVR
  Members of the group that acquired one or more qualifying tumors (≧1 mm) within the 52-week study period: less than one-half of the members of the groups acquired one or more qualifying tumors
  Reduction of tumor yield (≧1 mm) compared to the vehicle group: 8.1 fold
  Median Week to Tumor (≧1 mm): >52 Week
  Tumor Yield (≧1 mm): 0.49 tumors per survivor
[2]; topical 0.18%, 1% and 2% concentrations
  UV-induced skin tumor formation: dose-dependent delay
[2]; with increasing concentration, perceptible, 1 mm, 2 mm, 4 mm tumors, sexes combined
  Sizes of tumors (tumor prevalence, FIG. 1): sizes of tumors were also reduced

## COC(=O)[C@@H]1[C@H]2C[C@H]3c4[nH]c5ccccc5c4CCN3C[C@@H]2CC[C@@H]1O [yohimbine]
Pancreatic cancer cells
  Apoptosis of pancreatic cancer cells: induced apoptosis
  Proliferation of pancreatic cancer cells: inhibited the proliferation

## Cc1cccc([C@H](C)c2cnc[nH]2)c1C [dexmedetomidine]
[1]
  Proliferation of tumor cell lines: enhanced proliferation

## Cc1cc(C(C)(C)C)c(O)c(C)c1CC1=NCCN1 [oxymetazoline]
[1]
  Proliferation of tumor cell lines: enhanced proliferation
